Reference: patent publication US12115178B2, “Acylated active agents and methods of their use for the treatment of autoimmune disorders” (Flagship Pioneering Innovations V, Inc., priority 2018, dated 2024)
Where a name gives a salt, the structure may show the parent alone.

Assays:
[1] = tested on: type II collagen arthritis; assay: In vivo rheumatoid arthritis model (semi-established type II collagen arthritis); set-up: species or system Lewis rats; conditions: for Mean Ankle Diameter AUC (mm*day) / Mean Ankle Periosteal Bone width (um) / Mean Knee Inflammation score (0-5) / Mean Terminal hind paw weights / Mean body weight change, day −1 to 21 (%) / Relative Spleen to Body Weight (Mean) / Mean Ankle Bone Resorption score (0-5) / Mean Ankle Cartilage Damage score (0-5) / Mean Ankle Pannus score (0-5) / Mean Ankle Periosteal Bone score (0-5) / Mean Ankle inflammation score (0-5) / Mean Knee Bone Resorption score (0-5) / Mean Knee Cartilage Damage score (0-5) / Mean Knee Pannus score (0-5) / Serum IgG: rats; for Mean Ankle Bone Resorption score (0-5) / Mean Ankle Cartilage Damage score (0-5) / Mean Ankle Pannus score (0-5) / Mean Ankle Periosteal Bone score (0-5) / Mean Ankle inflammation score (0-5) / Mean Knee Bone Resorption score (0-5) / Mean Knee Cartilage Damage score (0-5) / Mean Knee Pannus score (0-5): 0 = normal, 5 = severe; for Serum IgG: terminal serum ELISA for anti-type II collagen antibodies
Description: A study was conducted to determine the efficacy of test articles dosed by the oral (PO) route for inhibition of the inflammation (paw swelling), cartilage destruction, and bone resorption that occurs in semi-established type II collagen arthritis in female Lewis rats. Rats (10 per group) were injected intradermally (ID) with porcine type II collagen to induce arthritis; one group of rats (4 per group) served as vehicle-treated naïve controls. […] Positive controls were treated PO, BID with the reference compound Tofacitinib citrate (10 mg/kg). The rats were euthanized for necropsy on study day 21 (animals #1-5 in each group, animals #1-2 in naïve group) or 22 (animals #6-10 in each group, animals #3-4 in naïve group). Efficacy evaluation was based on animal body weights (Table 9), daily ankle caliper measurements (FIG. 4), ankle diameter expressed as area under the curve (AUC) (Table 10), terminal hind paw weights (Table 11), histopathologic evaluation of hind paws (Ankle Inflammation score: Table 12, Ankle Pannus score: Table 13, Ankle Cartilage Damage score: Table 14, Ankle Bone Resorption score: Table 15, Ankle Periosteal Bone score: Table 16, Ankle Periosteal Bone Width: Table 17) and knees (Knee Inflammation score: Table 18, Knee Pannus score: Table 19, Knee Cartilage Damage score: Table 20, Knee Bone Resorption score: Table 21), and relative spleen to body weight ratio (Table 22). Terminal serum was analyzed by enzyme-linked immunosorbent assay (ELISA) for anti-type II collagen antibodies (IgG) (Table 23). […] Statistics were conducted using ordinary one-way ANOVA with Dunnett's multiple comparison correction in GraphPad Prism.

[2] = Assay 2. Stability in Simulated Intestinal Fluid (SIF); type: in vitro ADME; conditions: SIF pH 6.7 with pancreatin, 1 μM, 37° C.
Method in brief: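 Degradation rates came from LC/MS of acetonitrile-quenched samples drawn at intervals, starting at T0. The medium was freshly made pH 6.7 FaSSIF containing pancreatin, and test compound was present at 1 µM while being shaken at 37 °C.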

[3] = Assay 3. In vitro Colonic Material Stability Assay; type: in vitro ADME; conditions: colonic material slurry, anaerobic, 1 or 10 μM
[4] = Assay 1. Stability in Simulated Gastric Fluid (SGF); type: in vitro ADME; conditions: SGF pH 1.6 with pepsin, 1 μM, 37° C.
Method in brief: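 Degradation rate from LC/MS of acetonitrile-quenched aliquots (T0, then regular intervals). Fresh SGF (pH 1.6 NaCl, FaSSIF powder, pepsin 0.1 mg/mL) held compound at 1 μM final, 37° C; 1 mM DMSO stock.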

C[C@@H]1CCN(C(=O)CC#N)C[C@@H]1N(C)c1ncnc2[nH]ccc12 [Tofacitinib citrate, reference compound]
Mean Ankle Diameter AUC (mm*day) ([1]; 10 mg/kg PO BID): 73.82 mm*day
Mean Ankle Periosteal Bone width (um) ([1]; 10 mg/kg PO BID): 0.00 um
Mean Knee Inflammation score (0-5) ([1]; 10 mg/kg PO BID): 0.10
Mean Terminal hind paw weights ([1]; 10 mg/kg PO BID): 1.4321 g
Mean body weight change, day −1 to 21 (%) ([1]; 10 mg/kg PO BID): 20.2%
Relative Spleen to Body Weight (Mean) ([1]; 10 mg/kg PO BID): 0.1796
Mean Ankle Bone Resorption score (0-5) ([1]; 10 mg/kg PO BID): 0.00
Mean Ankle Cartilage Damage score (0-5) ([1]; 10 mg/kg PO BID): 0.00
Mean Ankle Pannus score (0-5) ([1]; 10 mg/kg PO BID): 0.00
Mean Ankle Periosteal Bone score (0-5) ([1]; 10 mg/kg PO BID): 0.00
Mean Ankle inflammation score (0-5) ([1]; 10 mg/kg PO BID): 1.4321
Mean Knee Bone Resorption score (0-5) ([1]; 10 mg/kg PO BID): 0.00
Mean Knee Cartilage Damage score (0-5) ([1]; 10 mg/kg PO BID): 0.00
Mean Knee Pannus score (0-5) ([1]; 10 mg/kg PO BID): 0.00
Serum IgG ([1]; 10 mg/kg PO BID): 2524.70 µg/mL

CCCC(=O)Oc1cc(OC(=O)CCC)c2c(=O)c(OC(=O)CCC)c(-c3ccc(OC(=O)CCC)c(OC(=O)CCC)c3)oc2c1 [Compound 5, [2-butanoyloxy-4-[3,5,7-tri(butanoyloxy)-4-oxo-chromen-2-yl]phenyl]butanoate]
Assay 2 (SIF) (% @ Remaining 4 hours) [2]: B (25-75% of the tested compound remaining)
Mean Ankle Diameter AUC (mm*day) ([1]; 100 mg/kg PO BID): 89.38 mm*day
Mean Ankle Periosteal Bone width (um) ([1]; 100 mg/kg PO BID): 510.30 um
Mean Knee Inflammation score (0-5) ([1]; 100 mg/kg PO BID): 5.23
Mean Terminal hind paw weights ([1]; 100 mg/kg PO BID): 2.3990 g
Mean body weight change, day −1 to 21 (%) ([1]; 100 mg/kg PO BID): −7.1%
Relative Spleen to Body Weight (Mean) ([1]; 100 mg/kg PO BID): 0.2453
Mean Ankle Bone Resorption score (0-5) ([1]; 100 mg/kg PO BID): 2.53
Mean Ankle Cartilage Damage score (0-5) ([1]; 100 mg/kg PO BID): 3.55
Mean Ankle Pannus score (0-5) ([1]; 100 mg/kg PO BID): 2.53
Mean Ankle Periosteal Bone score (0-5) ([1]; 100 mg/kg PO BID): 2.68
Mean Ankle inflammation score (0-5) ([1]; 100 mg/kg PO BID): 2.3990
Mean Knee Bone Resorption score (0-5) ([1]; 100 mg/kg PO BID): 2.08
Mean Knee Cartilage Damage score (0-5) ([1]; 100 mg/kg PO BID): 2.93
Mean Knee Pannus score (0-5) ([1]; 100 mg/kg PO BID): 2.08
Serum IgG ([1]; 100 mg/kg PO BID): 5937.67 µg/mL
Mean Ankle Diameter AUC (mm*day) ([1]; 500 mg/kg PO BID): 93.57 mm*day
Mean Ankle Periosteal Bone width (um) ([1]; 500 mg/kg PO BID): 699.30 um
Mean Knee Inflammation score (0-5) ([1]; 500 mg/kg PO BID): 5.65
Mean Terminal hind paw weights ([1]; 500 mg/kg PO BID): 2.3994 g
Mean body weight change, day −1 to 21 (%) ([1]; 500 mg/kg PO BID): −10.1%
Relative Spleen to Body Weight (Mean) ([1]; 500 mg/kg PO BID): 0.2534
Mean Ankle Bone Resorption score (0-5) ([1]; 500 mg/kg PO BID): 3.33
Mean Ankle Cartilage Damage score (0-5) ([1]; 500 mg/kg PO BID): 4.45
Mean Ankle Pannus score (0-5) ([1]; 500 mg/kg PO BID): 3.33
Mean Ankle Periosteal Bone score (0-5) ([1]; 500 mg/kg PO BID): 3.70
Mean Ankle inflammation score (0-5) ([1]; 500 mg/kg PO BID): 2.3994
Mean Knee Bone Resorption score (0-5) ([1]; 500 mg/kg PO BID): 2.65
Mean Knee Cartilage Damage score (0-5) ([1]; 500 mg/kg PO BID): 4.00
Mean Knee Pannus score (0-5) ([1]; 500 mg/kg PO BID): 2.65
Serum IgG ([1]; 500 mg/kg PO BID): 5350.41 µg/mL
effects on spleen weights relative to body weight, ankle diameter AUC, ankle pannus score, ankle bone resorption score, and ankle periosteal bone score ([1]; rat collagen arthritis, PO BID): significant beneficial effects

CC(=O)O[C@H]1OC[C@H](OC(C)=O)[C@H](OC(C)=O)[C@H]1OC(C)=O [Compound 219, (2R,3R,4S,5S)-tetrahydro-2H-pyran-2,3,4,5-tetrayl tetraacetate]
Assay 2 (SIF) (% @ Remaining 4 hours) [2]: A (<25% of the tested compound remaining)
Assay 3 (% Remaining at 24 h) [3]: A (<25% of the tested compound remaining)
Assay 1 (SGF) (% Remaining @ 1 hour) [4]: C (>75% of the tested compound remaining)

CCC(=O)O[C@H]1[C@H](OC(=O)CC)[C@@H](OC(=O)CCc2c[nH]c3ccccc23)O[C@@H](C)[C@H]1OC(=O)CC [Compound 77, (2R,3S,4R,5R,6S)-6-methyl-3,4,5-tris(propanoyloxy)oxan-2-yl 3-(1H-indol-3-yl)propanoate]
Assay 2 (SIF) (% @ Remaining 4 hours) [2]: C (>75% of the tested compound remaining)
Assay 3 (% Remaining at 24 h) [3]: A (<25% of the tested compound remaining)
Assay 1 (SGF) (% Remaining @ 1 hour) [4]: C (>75% of the tested compound remaining)

CCCC(=O)O[C@@H]1[C@@H](OC(=O)CCC)[C@H](Oc2ccc(N)cc2C(=O)O)OC[C@H]1OC(=O)CCC [Compound 19, 5-amino-2-[(2S,3R,4S,5R)-3,4,5-tri(butanoyloxy)tetrahydropyran-2-yl]oxy-benzoic acid]
Assay 2 (SIF) (% @ Remaining 4 hours) [2]: B (25-75% of the tested compound remaining)
Assay 3 (% Remaining at 24 h) [3]: B (25-75% of the tested compound remaining)
Assay 1 (SGF) (% Remaining @ 1 hour) [4]: C (>75% of the tested compound remaining)

CCC(=O)O[C@@H]1O[C@H](C(=O)O)[C@@H](OC(=O)CC)[C@H](OC(=O)CC)[C@H]1OC(=O)CC [Compound 47, (2S,3S,4S,5R,6S)-3,4,5,6-tetrakis(propanoyloxy)oxane-2-carboxylic acid]
Assay 2 (SIF) (% @ Remaining 4 hours) [2]: A (<25% of the tested compound remaining)
Assay 3 (% Remaining at 24 h) [3]: A (<25% of the tested compound remaining)
Assay 1 (SGF) (% Remaining @ 1 hour) [4]: C (>75% of the tested compound remaining)

CCC(=O)OC[C@H]1O[C@@H](OC(=O)CCc2c[nH]c3ccccc23)[C@H](OC(=O)CC)[C@@H](OC(=O)CC)[C@@H]1OC(=O)CC [Compound 112, [(2R,3R,4S,5R,6S)-6-{[3-(1H-indol-3-yl)propanoyl]oxy}-3,4,5-tris(propanoyloxy)oxan-2-yl]methyl propanoate]
Assay 2 (SIF) (% @ Remaining 4 hours) [2]: A (<25% of the tested compound remaining)
Assay 3 (% Remaining at 24 h) [3]: A (<25% of the tested compound remaining)
Assay 1 (SGF) (% Remaining @ 1 hour) [4]: C (>75% of the tested compound remaining)

CCC(=O)O[C@H]1O[C@H](C(=O)O)[C@@H](OC(=O)CC)[C@H](OC(=O)CC)[C@H]1OC(=O)CC [Compound 46, (2S,3S,4S,5R,6R)-3,4,5,6-tetrakis(propanoyloxy)oxane-2-carboxylic acid]
Assay 2 (SIF) (% @ Remaining 4 hours) [2]: A (<25% of the tested compound remaining)
Assay 3 (% Remaining at 24 h) [3]: A (<25% of the tested compound remaining)
Assay 1 (SGF) (% Remaining @ 1 hour) [4]: C (>75% of the tested compound remaining)

CCC(=O)O[C@H]1[C@H](OC)OC[C@@H](OC(=O)CC)[C@H]1OC(=O)CC [Compound 51, (2R,3R,4R,5R)-2-methoxy-3,5-bis(propanoyloxy)oxan-4-yl propanoate]
Assay 2 (SIF) (% @ Remaining 4 hours) [2]: C (>75% of the tested compound remaining)
Assay 3 (% Remaining at 24 h) [3]: B (25-75% of the tested compound remaining)
Assay 1 (SGF) (% Remaining @ 1 hour) [4]: C (>75% of the tested compound remaining)

CCC(=O)O[C@@H]1[C@@H](OC(=O)CC)[C@H](C)O[C@@H](OC(=O)Cc2c[nH]c3ccccc23)[C@@H]1OC(=O)CC [Compound 115, (2S,3R,4R,5S,6S)-2-{[2-(1H-indol-3-yl)acetyl]oxy}-6-methyl-4,5-bis(propanoyloxy)oxan-3-yl propanoate]
Assay 2 (SIF) (% @ Remaining 4 hours) [2]: A (<25% of the tested compound remaining)
Assay 3 (% Remaining at 24 h) [3]: A (<25% of the tested compound remaining)
Assay 1 (SGF) (% Remaining @ 1 hour) [4]: C (>75% of the tested compound remaining)

CCC(=O)O[C@@H]1[C@@H](OC(=O)CC)[C@H](OC(=O)CCc2c[nH]c3ccccc23)OC[C@@H]1OC(=O)CC [Compound 74, (2S,3R,4S,5S)-3,4,5-tris(propanoyloxy)oxan-2-yl 3-(1H-indol-3-yl)propanoate]
Assay 2 (SIF) (% @ Remaining 4 hours) [2]: A (<25% of the tested compound remaining)
Assay 3 (% Remaining at 24 h) [3]: A (<25% of the tested compound remaining)
Assay 1 (SGF) (% Remaining @ 1 hour) [4]: C (>75% of the tested compound remaining)

CCC(=O)OC[C@H]1O[C@@H](OC(=O)Cc2c[nH]c3ccccc23)[C@H](OC(=O)CC)[C@@H](OC(=O)CC)[C@@H]1OC(=O)CC [Compound 111, [(2R,3R,4S,5R,6S)-6-{[2-(1H-indol-3-yl)acetyl]oxy}-3,4,5-tris(propanoyloxy)oxan-2-yl]methyl propanoate]
Assay 2 (SIF) (% @ Remaining 4 hours) [2]: A (<25% of the tested compound remaining)
Assay 3 (% Remaining at 24 h) [3]: A (<25% of the tested compound remaining)
Assay 1 (SGF) (% Remaining @ 1 hour) [4]: C (>75% of the tested compound remaining)

CCC(=O)O[C@H]1[C@H](OC(=O)CCc2c[nH]c3ccccc23)OC[C@@H](OC(=O)CC)[C@H]1OC(=O)CC [Compound 98, (2S,3R,4R,5R)-3,4,5-tris(propanoyloxy)oxan-2-yl 3-(1H-indol-3-yl)propanoate]
Assay 2 (SIF) (% @ Remaining 4 hours) [2]: A (<25% of the tested compound remaining)
Assay 3 (% Remaining at 24 h) [3]: A (<25% of the tested compound remaining)
Assay 1 (SGF) (% Remaining @ 1 hour) [4]: B (25-75% of the tested compound remaining)
